Reference: patent US20090202618A1, “Dna vaccines encoding hsp60 peptide fragments for treating autoimmune diseases” (Yeda Research & Development Co. Ltd, priority 2003, published 2009)

Tested on: LNC
Experiment: LNC proliferative response to overlapping peptides of HSP60
Type: cell-based, Lewis rats
Conditions: day 26 after AA induction, SI±SEM, SI<2 considered not significant
Method: T-cell proliferation assays were performed at day 26 after the induction of AA, when the disease is at its peak, as previously described (Quintana et al., 2002). Briefly, popliteal and inguinal lymph node cells (LNC), were cultured in quadruplicates in 200 μl round bottom microtiter wells (Costar Corp., Cambridge, USA) at 2×10^5 cells per well with or without antigen. The T-cell mitogen Concanavalin A (Con A) was used as a positive control for T-cell proliferation. Cultures were incubated for 96 hr at 37° C. in a humidified atmosphere of 5% CO2. T-cell responses were detected by the incorporation of [methyl-3H]-thymidine (Amersham, Buckinghamshire, UK; 1 μCi/well), which was added to the wells for the last 18 hr. The stimulation index (SI) was computed as the ratio of the mean c.p.m. of antigen- or mitogen-containing wells to control wells cultured with medium alone. The results of T-cell proliferation experiments are shown as SI±SEM, T-cell responses with SI<2 were considered not significant.
It was previously reported that the suppression of AA by pHSP60 DNA vaccination was associated with T-cell reactivity to a single HSP60 peptide epitope, Hu3 (Quintana et al., 2003). […]

Sequence: KFGADARALMLQGVDLLADA (human hsp60 epitope) [Hu3]
- Stimulation Index (SI) (LNC from pHSP70-vaccinated rats): did not respond
- Stimulation Index (SI) (LNC from pcDNA3-vaccinated rats): did not respond
